The test system of experiment [1] is IL-1β secretion in BMDM cells (NLRP3 inflammasome). Briefly: ELISA of IL-1β secretion in LPS/nigericin-treated BMDM cells. The conditions noted are these: Mus musculus. Type of experiment: cell-based. As for the experimental part:
When L929 cells reach the logarithmic phase, collect the cell supernatant. Filter the supernatant using a 0.22 μm filter and store it at −20 °C for future use. The 7-week-old C57BL/6 mice were selected as the source of primary bone marrow macrophages. The mice were euthanized using the cervical dislocation method. The ends of the femurs were cut, and the bone marrow was flushed into a 15 mL centrifuge tube using a 5 mL syringe. Once all the bone marrow was collected, an appropriate amount of red blood cell lysis buffer was added to the centrifuge tube. The mixture was incubated for 3–5 min, with repeated pipetting to thoroughly lyse the red blood cells. The cells were then centrifuged and collected. Add 30–40% L929 cell supernatant or M-CSF stimulatory factor to the culture dish. Culture the cells in a cell incubator at 37 °C with 5% CO2. Observe the cell condition daily, and once most cells have adhered to the surface, proceed with subsequent experiments.
Inoculate 1.0 × 10^5 BMDMs cells per well into a 96 well plate and culture overnight. Stimulate the cells with lipopolysaccharide (LPS) at a concentration of 0.2 μg/mL for 3 h, then add different concentrations of the test compounds and incubate for 30 min. Finally, add Nigericin at a concentration of 10 μM to continue the induction for 30 min. Collect the cell supernatant and measure the IL-1β secretion level in the supernatant using an ELISA kit, following the instructions provided, and calculate the IC50 value based on the relevant calculations. To ensure the accuracy and reliability of the experimental results, all experiments were repeated three times, with each experiment performed independently.
A general note: ELISA stands for enzyme-linked immunosorbent assay.

In experiment [2] the test system is BMDM cells. Briefly: Flow cytometry apoptosis assay kit (pyroptosis) in BMDM cells under LPS/Nigericin. Type of experiment: cell-based, mouse. The note with it: vs LPS/Nigericin group, more pronounced at higher concentrations. From the text: Pyroptosis is a form of programmed cell death, typically triggered by the activation of inflammasomes within the cell. It is characterized by the rupture of the cell membrane, releasing cellular contents (such as Lactate Dehydrogenase, LDH), which enhances the inflammatory response. Unlike apoptosis, pyroptosis is initiated through the activation of inflammasomes, involving distinct molecular mechanisms, and is often accompanied by cell swelling and rupture. In contrast, apoptosis is triggered by the activation of Caspase-3, leading to systemic degradation within the cell while maintaining the integrity of the cell membrane. The cell undergoes controlled self-degradation without provoking an immune response. […]
Figure 4 F14 inhibits NLRP3 inflammasome activation, leading to cell pyroptosis. […] All values given are best readings. / LPS/Nigericin: Q1-UL 0.83%, Q1-UR 79.53%, Q1-LL 14.81%, Q1-LR 4.83% uncertain / F14 10 μM: Q1-UL 0.52%, Q1-UR 48.44%, Q1-LL 45.87%, Q1-LR 5.17% uncertain / F14 5 μM: Q1-UL 1.05%, Q1-UR 58.47%, Q1-LL 36.16%, Q1-LR 4.32% uncertain / F14 2.5 μM: Q1-UL 0.97%, Q1-UR 69.26%, Q1-LL 24.69%, Q1-LR 5.08% uncertain / The Control plot in panel A (Q1-UL 0.83%, Q1-UR 24.77%, Q1-LL 69.90%, Q1-LR 4.49%) is left out because it is not a substance. / LPS/Nigericin is the stimulus rather than a test compound. […]
A general note: A flow cytometer gives signals particle by particle.

For experiment [3], the system named is BMDM cells. Briefly: MitoTracker/MitoSOX staining and ROS detection (DCFH-DA flow cytometry) in BMDMs. Format: cell-based, mouse. The note with it: LPS and Nigericin. From the text: Mitochondrial dysfunction and excessive production of reactive oxygen species (ROS) are key upstream signaling events in the activation of the NLRP3 inflammasome. To investigate whether compound F14 affects mitochondrial damage and ROS production, we performed staining experiments using MitoTracker and MitoSOX, followed by imaging and analysis using a confocal microscope. […] To further verify the effect of F14 on ROS levels, we used flow cytometry to measure intracellular ROS levels in BMDM cells stimulated with Nigericin.
BMDMs were seeded at a density of 1.0 × 10^6 cells per well in a 6-well plate, and the cell treatment was performed as described above. DCFH-DA probe was added to each well at a 1:1000 dilution (prepared in serum-free medium), and the cells were incubated at 37 °C in the dark for 20 min. The cells were gently mixed every 5 min to ensure uniform probe penetration. The cells were washed three times with PBS, and ROS levels were measured using flow cytometry (excitation/emission wavelengths: 488/525 nm).

Each structure is given as a SMILES string.

As for `Cc1ccc(C(=O)/C=C/c2cccc(O)c2)c(C)c1` [Compound F14, (E)-1-(2,4-dimethylphenyl)-3-(3-hydroxyphenyl)propyl-2-en-1-one], the inhibition (commonly how much of the control response was suppressed) at 20 µM in experiment [1] (20 µM, LPS/nigericin-treated BMDM cells, mean ± S.E.M. (n = 3), read-out: IL-1β Inhibition Rate (%)) worked out at 95.4 ± 2.56%. Moreover, the IC50 (as a rule, the concentration needed to halve the response being measured) in experiment [1] (BMDM, LPS/nigericin, three independent experiments, read-out: IL-1β release IC50 in BMDMs) is 0.74 µM. In the experiment on BMDM cells [2], the “viable cell percentage and late apoptotic cell percentage” value is recorded as “significantly improved”. Also, the “mitochondrial membrane potential and fluorescence intensity of mitochondrial superoxide anions” value in the experiment with BMDM cells [3] (MitoTracker, MitoSOX) was “no significant improvement”. The “total ROS levels” value in the experiment on BMDM cells [3] (flow cytometry) was “no significant change”.
